# Test results: patent US10918642B2, “N-(substituted-phenyl)-sulfonamide derivatives as kinase inhibitors” (Nerviano Medical Sciences S.R.L., priority 2016, dated 2021)
# Molecular target: PERK recombinant enzyme (cytoplasmic domain corresponding to residues 540-1115) (Homo sapiens (Human), UniProt Q9NZJ5)
# Assay: PERK enzyme assay, Method 1: ADP-Glo Kinase Assay (quantification of ADP formed)
# Type: biochemical
# Settings: 52 microM ATP, 8 nM PERK, 300 microM eIF2alpha peptide substrate, 60 minutes at room temperature
# Procedure: The biochemical activity of compounds was determined by incubation with PERK recombinant enzyme (cytoplasmic domain corresponding to residues 540-1115) and elF2alpha peptide substrate (Aminoacid sequence: LLSELSRRRIRSINK—SEQ ID Nr: 1; purchased from American Peptide Company, product #341923). This was followed by:
# Method 1: Quantification of the ADP Tormed from the Kinase Reaction by ADP-Glo™ Kinase Assay (Promega Cat. 9102). Utra Pure ATP was Included into ADP-Glo™ Kinase Assay kit.
# Compounds were 3-fold serially diluted in order to obtain from 3.333 to 0.000169 microM final concentration, then incubated for 60 minutes at room temperature in the presence of ATP, substrate and enzyme in a final volume of 15 microL of kinase buffer in 384-well plates (Perkin Elmer cat. #6007290).
# The final concentration of the different reagents is 52 microM ATP, 8 nM PERK, 300 microM substrate, 50 mM Hepes pH 7.5, 3 mM MgCl2, 1 mM DTT, 3 microM Na3VO4, 0.2 mg/ml BSA, 1% DMSO.
# After 60 minutes, an equal volume (15 microL) of ADP-Glo™ Reagent was added to each well to terminate the kinase reaction and deplete the remaining ATP. After 40 minutes, 30 microL of Kinase Detection Reagent is added, which simultaneously converts ADP to ATP and allows the newly synthesized ATP to be measured using a coupled luciferase/luciferin reaction. After further 40 minutes luminescence was read by ViewLux Instrument (Perkin Elmer). The data are analyzed by GraphPad Prism software which provides sigmoidal fittings of the curves for IC50 determination using a 4 parameter logistic equation: y=bottom+(top−bottom)/(1+10^((log IC50−x)*slope))
# where x is the logarithm of the inhibitor concentration, y is the response; y starts at bottom and goes to top with a sigmoid shape.
# PERK recombinant enzyme (cytoplasmic domain corresponding to residues 540-1115), sequence (Q9NZJ5 540-1115): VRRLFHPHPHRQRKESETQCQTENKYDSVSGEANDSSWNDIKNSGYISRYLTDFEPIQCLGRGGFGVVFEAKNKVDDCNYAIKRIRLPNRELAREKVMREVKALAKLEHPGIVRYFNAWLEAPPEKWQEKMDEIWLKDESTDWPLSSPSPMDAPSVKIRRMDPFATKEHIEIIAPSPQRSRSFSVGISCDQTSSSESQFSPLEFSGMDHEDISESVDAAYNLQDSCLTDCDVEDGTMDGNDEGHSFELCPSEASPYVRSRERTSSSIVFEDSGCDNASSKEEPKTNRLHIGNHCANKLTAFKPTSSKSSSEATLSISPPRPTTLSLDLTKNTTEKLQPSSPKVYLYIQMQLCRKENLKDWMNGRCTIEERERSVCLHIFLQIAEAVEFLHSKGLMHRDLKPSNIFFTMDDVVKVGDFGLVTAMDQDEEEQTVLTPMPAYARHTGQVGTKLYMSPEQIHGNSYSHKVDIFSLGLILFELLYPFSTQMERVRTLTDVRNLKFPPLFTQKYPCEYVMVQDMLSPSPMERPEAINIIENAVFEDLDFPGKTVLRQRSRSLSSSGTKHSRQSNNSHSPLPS
Compound,pIC50,IC50 [nM]
"COc1ccc(S(=O)(=O)Nc2cccc(-c3cn(C4CCN(C)CC4)c4ncnc(N)c34)c2F)cc1C [cmpd 38, N-{3-[4-Amino-7-(1-methyl-piperidin-4-yl)-7H-pyrrolo[2,3-d]pyrimidin-5-yl]-2-fluoro-phenyl}-4-methoxy-3-methyl-benzenesulfonamide]",AA (7.8 ≤ pIC50),–
"COc1ccc(S(=O)(=O)Nc2cccc(-c3cn(C4CCN(C)CC4)c4ncnc(N)c34)c2F)cc1Cl [cmpd 4, N-{3-[4-Amino-7-(1-methyl-piperidin-4-yl)-7H-pyrrolo[2,3-d]pyrimidin-5-yl]-2-fluoro-phenyl}-3-chloro-4-methoxy-benzenesulfonamide]",AA (7.8 ≤ pIC50),–
"Cn1cc(-c2cccc(NS(=O)(=O)c3cnc(Cl)c(Br)c3)c2F)c2c(N)ncnc21 [cmpd 33, 5-Bromo-6-chloro-pyridine-3-sulfonic acid [3-(4-amino-7-methyl-7H-pyrrolo[2,3-d]pyrimidin-5-yl)-2-fluoro-phenyl]-amide]",–,15.8 to 50.1
"COc1cc(F)c(S(=O)(=O)Nc2cccc(-c3cn(C)c4ncnc(N)c34)c2F)cc1Cl [cmpd 24, N-[3-(4-Amino-7-methyl-7H-pyrrolo[2,3-d]pyrimidin-5-yl)-2-fluoro-phenyl]-5-chloro-2-fluoro-4-methoxy-benzenesulfonamide]",AA (7.8 ≤ pIC50),–
"CN1CCOc2cc(S(=O)(=O)Nc3cccc(-c4cn(C)c5ncnc(N)c45)c3F)ccc21 [cmpd 18, 4-Methyl-3,4-dihydro-2H-benzo[1,4]oxazine-7-sulfonic acid [3-(4-amino-7-methyl-7H-pyrrolo[2,3-d]pyrimidin-5-yl)-2-fluoro-phenyl]-amide]",–,50.1 to 158
"Cc1cc(S(=O)(=O)Nc2cccc(-c3cn(C)c4ncnc(N)c34)c2F)ccc1OC(C)C [cmpd 30, N-[3-(4-Amino-7-methyl-7H-pyrrolo[2,3-d]pyrimidin-5-yl)-2-fluoro-phenyl]-4-isopropoxy-3-methyl-benzenesulfonamide]",C (pIC50 < 6.8),–
"Cn1cc(-c2cccc(NS(=O)(=O)c3ccc(Cl)s3)c2F)c2c(N)ncnc21 [cmpd 47, 5-Chloro-thiophene-2-sulfonic acid [3-(4-amino-7-methyl-7H-pyrrolo[2,3-d]pyrimidin-5-yl)-2-fluoro-phenyl]-amide]",–,15.8 to 50.1
"Cn1cc(-c2cccc(NS(=O)(=O)c3ccc(OC(F)(F)F)c(Cl)c3)c2F)c2c(N)ncnc21 [cmpd 50, N-[3-(4-Amino-7-methyl-7H-pyrrolo[2,3-d]pyrimidin-5-yl)-2-fluoro-phenyl]-3-chloro-4-trifluoromethoxy-benzenesulfonamide]",C (pIC50 < 6.8),–
"Cn1cc(-c2cccc(NS(=O)(=O)c3cc(C(F)(F)F)cc(C(F)(F)F)c3)c2F)c2c(N)ncnc21 [cmpd 49, N-[3-(4-Amino-7-methyl-7H-pyrrolo[2,3-d]pyrimidin-5-yl)-2-fluoro-phenyl]-3,5-bis-trifluoromethyl-benzenesulfonamide]",–,50.1 to 158
"Cn1cc(-c2cccc(NS(=O)(=O)c3c(F)cccc3F)c2F)c2c(N)ncnc21 [cmpd 23, N-[3-(4-Amino-7-methyl-7H-pyrrolo[2,3-d]pyrimidin-5-yl)-2-fluoro-phenyl]-2,6-difluoro-benzenesulfonamide]",–,50.1 to 158
"COc1ccc(S(=O)(=O)Nc2cccc(-c3cn(C)c4ncnc(N)c34)c2F)cc1OC [cmpd 17, N-[3-(4-Amino-7-methyl-7H-pyrrolo[2,3-d]pyrimidin-5-yl)-2-fluoro-phenyl]-3,4-dimethm-benzenesulfonamide]",–,50.1 to 158
"Cn1cc(-c2cccc(NS(=O)(=O)c3cc(F)c(F)c(F)c3)c2F)c2c(N)ncnc21 [cmpd 32, N-[3-(4-Amino-7-methyl-7H-pyrrolo[2,3-d]pyrimidin-5-yl)-2-fluoro-phenyl]-3,4,5-trifluoro-benzenesulfonamide]",–,15.8 to 50.1
"CCn1cc(-c2cccc(NS(=O)(=O)c3cc(Cl)c(OC)cc3F)c2F)c2c(N)ncnc21 [cmpd 75, N-[3-(4-Amino-7-ethyl-7H-pyrrolo[2,3-d]pyrimidin-5-yl)-2-fluoro-phenyl]-5-chloro-2-fluoro-4-methoxy-benzenesulfonamide]",–,15.8 to 50.1
"COc1ccc(S(=O)(=O)Nc2cccc(-c3cn(C4CCN(C(C)C)CC4)c4ncnc(N)c34)c2F)cc1C [cmpd 40, N-{3-[4-Amino-7-(1-isopropyl-piperidin-4-yl)-7H-pyrrolo[2,3-d]pyrimidin-5-yl]-2-fluoro-phenyl}-4-methoxy-3-methyl-benzenesulfonamide]",–,15.8 to 50.1
"COc1ccc(S(=O)(=O)Nc2cccc(-c3cn(C)c4ncnc(N)c34)c2F)cc1C [cmpd 12, N-[3-(4-Amino-7-methyl-7H-pyrrolo[2,3-d]pyrimidin-5-yl)-2-fluoro-phenyl]-4-methoxy-3-methyl-benzenesulfonamide]",–,15.8 to 50.1
"Cn1cc(-c2cccc(NS(=O)(=O)c3ccc([N+](=O)[O-])cc3)c2F)c2c(N)ncnc21 [cmpd 19, N-[3-(4-Amino-7-methyl-7H-pyrrolo[2,3-d]pyrimidin-5-yl)-2-fluoro-phenyl]-4-nitro-benzenesulfonamide]",–,15.8 to 50.1
"Cn1cc(-c2cccc(NS(=O)(=O)c3ccc(Cl)cc3F)c2F)c2c(N)ncnc21 [cmpd 85, N-[3-(4-Amino-7-methyl-7H-pyrrolo[2,3-d]pyrimidin-5-yl)-2-fluoro-phenyl]-4-chloro-2-fluoro-benzenesulfonamide]",–,15.8 to 50.1
"Cn1cc(-c2cccc(NS(=O)(=O)c3ccc(O)c(Cl)c3)c2F)c2c(N)ncnc21 [cmpd 67, N-[3-(4-Amino-7-methyl-7H-pyrrolo[2,3-d]pyrimidin-5-yl)-2-fluoro-phenyl]-3-chloro-4-hydroxy-benzenesulfonamide]",C (pIC50 < 6.8),–
"Cn1cc(-c2cccc(NS(=O)(=O)c3ccc(Cl)c(Cl)c3)c2F)c2c(N)ncnc21 [cmpd 25, N-[3-(4-Amino-7-methyl-7H-pyrrolo[2,3-d]pyrimidin-5-yl)-2-fluoro-phenyl]-3,4-dichloro-benzenesulfonamide]",–,15.8 to 50.1
"Cn1cc(-c2cccc(NS(=O)(=O)c3ccc(Br)cc3F)c2F)c2c(N)ncnc21 [cmpd 22, N-[3-(4-Amino-7-methyl-7H-pyrrolo[2,3-d]pyrimidin-5-yl)-2-fluoro-phenyl]-4-bromo-2-fluoro-benzenesulfonamide]",–,15.8 to 50.1
"Cn1cc(-c2cccc(NS(=O)(=O)c3ccc4c(c3)CCO4)c2F)c2c(N)ncnc21 [cmpd 27, 2,3-Dihydro-benzofuran-5-sulfonic acid [3-(4-amino-7-methyl-7H-pyrrolo[2,3-d]pyrimidin-5-yl)-2-fluoro-phenyl]-amide]",AA (7.8 ≤ pIC50),–
"COc1cc(F)c(S(=O)(=O)Nc2cccc(-c3cn(C4CCN(C)CC4)c4ncnc(N)c34)c2F)cc1Cl [cmpd 3, N-{3-[4-Amino-7-(1-methyl-piperidin-4-yl)-7H-pyrrolo[2,3-d]pyrimidin-5-yl]-2-fluoro-phenyl}-5-chloro-2-fluoro-4-methoxy-benzenesulfonamide]",AA (7.8 ≤ pIC50),–
"Cn1cc(-c2cccc(NS(=O)(=O)c3ccc4ccccc4c3)c2F)c2c(N)ncnc21 [cmpd 20, Naphthalene-2-sulfonic acid [3-(4-amino-7-methyl-7H-pyrrolo[2,3-d]pyrimidin-5-yl)-2-fluoro-phenyl]-amide]",C (pIC50 < 6.8),–
"COc1cc(F)c(S(=O)(=O)Nc2cccc(-c3nn(C)c4ncnc(N)c34)c2F)cc1Cl [cmpd 9, N-[3-(4-Amino-1-methyl-1H-pyrazolo[3,4-d]pyrimidin-3-yl)-2-fluoro-phenyl]-5-chloro-2-fluoro-4-methoxy-benzenesulfonamide]",AA (7.8 ≤ pIC50),–
"COc1cc(F)c(S(=O)(=O)Nc2cccc(-c3cn(C(C)C)c4ncnc(N)c34)c2F)cc1Cl [cmpd 74, N-[3-(4-Amino-7-isopropyl-7H-pyrrolo[2,3-d]pyrimidin-5-yl)-2-fluoro-phenyl]-5-chloro-2-fluoro-4-methoxy-benzenesulfonamide]",–,50.1 to 158
"COc1ccc(S(=O)(=O)Nc2cccc(-c3cn(C4CCN(C5CC5)CC4)c4ncnc(N)c34)c2F)cc1C [cmpd 39, N-{3-[4-Amino-7-(1-cyclopropyl-piperidin-4-yl)-7H-pyrrolo[2,3-d]pyrimidin-5-yl]-2-fluoro-phenyl}-4-methoxy-3-methyl-benzenesulfonamide]",–,15.8 to 50.1
"Cc1cc(S(=O)(=O)Nc2cccc(-c3cn(C)c4ncnc(N)c34)c2F)ccc1Br [cmpd 52, N-[3-(4-Amino-7-methyl-7H-pyrrolo[2,3-d]pyrimidin-5-yl)-2-fluoro-phenyl]-4-bromo-3-methyl-benzenesulfonamide]",AA (7.8 ≤ pIC50),–
"CCN1CCC(n2cc(-c3cccc(NS(=O)(=O)c4ccc(OC)c(C)c4)c3F)c3c(N)ncnc32)CC1 [cmpd 41, N-{3-[4-Amino-7-(1-ethyl-piperidin-4-yl)-7H-pyrrolo[2,3-d]pyrimidin-5-yl]-2-fluoro-phenyl}-4-methoxy-3-methyl-benzenesulfonamide]",–,15.8 to 50.1
